Values joined by “and” are separate entries in the source; they are usually repeats but may differ in a detail not shown here. Identical values can stand only once.
How the values were obtained:
Saimiri [1] = test: Antipsychotic activity in po dosed squirrel monkey assessed as inhibition of conditioned avoidance response measured as maximum number of shocks; type: functional
Saimiri [2] = test: Antipsychotic activity in squirrel monkey assessed as inhibition of conditioned avoidance response measured as maximum number of shocks possible per 30 mins interval at 1 mg/kg, po administered followed by saline 15 mins later measured after 4 to 4.5 hrs of dosing; type: functional
Saimiri [3] = test: Antipsychotic activity in squirrel monkey assessed as inhibition of conditioned avoidance response measured as maximum number of shocks possible per 30 mins interval at 1 mg/kg, po administered followed by saline 15 mins later measured after 1.5 to 2 hrs of dosing; type: functional
Saimiri [4] = test: Antipsychotic activity in squirrel monkey assessed as inhibition of conditioned avoidance response measured as maximum number of shocks possible per 30 mins interval at 1 mg/kg, po administered followed by saline 15 mins later measured after 1 to 1.5 hrs of dosing; type: functional
Saimiri [5] = test: Antipsychotic activity in squirrel monkey assessed as inhibition of conditioned avoidance response measured as maximum number of shocks possible per 30 mins interval at 1 mg/kg, po administered followed by saline 15 mins later measured after 3 to 3.5 hrs of dosing; type: functional
Saimiri [6] = test: Antipsychotic activity in squirrel monkey assessed as inhibition of conditioned avoidance response measured as maximum number of shocks possible per 30 mins interval at 1 mg/kg, po administered followed by saline 15 mins later measured after 3.5 to 4 hrs of dosing; type: functional
Saimiri [7] = test: Antipsychotic activity in squirrel monkey assessed as inhibition of conditioned avoidance response measured as maximum number of shocks possible per 30 mins interval at 1 mg/kg, po administered followed by saline 15 mins later measured after 0 to 0.5 hrs of dosing; type: functional
Saimiri [8] = test: Antipsychotic activity in squirrel monkey assessed as inhibition of conditioned avoidance response measured as maximum number of shocks possible per 30 mins interval at 1 mg/kg, po administered followed by saline 15 mins later measured after 0.5 to 1 hrs of dosing; type: functional
Saimiri [9] = test: Antipsychotic activity in squirrel monkey assessed as inhibition of conditioned avoidance response measured as maximum number of shocks possible per 30 mins interval at 1 mg/kg, po administered followed by saline 15 mins later measured after 2.5 to 3 hrs of dosing; type: functional
Saimiri [10] = test: Antipsychotic activity in squirrel monkey assessed as inhibition of conditioned avoidance response measured as maximum number of shocks possible per 30 mins interval at 1 mg/kg, po administered followed by saline 15 mins later measured after 2 to 2.5 hrs of dosing; type: functional
Saimiri [11] = test: Antipsychotic activity in squirrel monkey assessed as inhibition of conditioned avoidance response measured as maximum number of shocks possible per 30 mins interval at 0.25 mg/kg, po after 30 to 60 mins dosing; type: functional
Saimiri [12] = test: Antipsychotic activity in squirrel monkey assessed as inhibition of conditioned avoidance response measured as maximum number of shocks possible per 30 mins interval at 1 mg/kg, po 6 days later animal received test compound followed by 0.75 mg/kg, im benztropine 15 mins later measured after 4 to 4.5 hrs of dosing; type: functional
Saimiri [13] = test: Antipsychotic activity in squirrel monkey assessed as inhibition of conditioned avoidance response measured as maximum number of shocks possible per 30 mins interval at 1 mg/kg, po after 210 to 240 mins dosing; type: functional
Saimiri [14] = test: Antipsychotic activity in squirrel monkey assessed as inhibition of conditioned avoidance response measured as maximum number of shocks possible per 30 mins interval at 1 mg/kg, po 10 days later animal received test compound and again saline measured after 2 to 2.5 hrs of dosing; type: functional
Mus musculus [15] = test: Central anticholinergic activity against physostigmine-induced lethality in Carworth CF1 mouse assessed as animal death at 15 mg/kg, po treated 5 hrs before 1.6 mg/kg, sc physostigmine treatment and 2 mg/kg, ip atropine methyl nitrate treated 0.5 hrs before induction (reference value: 0%); type: functional
Saimiri [16] = test: Antipsychotic activity in squirrel monkey assessed as inhibition of conditioned avoidance response measured as maximum number of shocks possible per 30 mins interval at 1 mg/kg, po 6 days later animal received test compound followed by 0.75 mg/kg, im benztropine 15 mins later measured after 1.5 to 2 hrs of dosing; type: functional
Saimiri [17] = test: Antipsychotic activity in squirrel monkey assessed as inhibition of conditioned avoidance response measured as maximum number of shocks possible per 30 mins interval at 1 mg/kg, po 10 days later animal received test compound and again saline measured after 3.5 to 4 hrs of dosing; type: functional
Saimiri [18] = test: Antipsychotic activity in squirrel monkey assessed as inhibition of conditioned avoidance response measured as maximum number of shocks possible per 30 mins interval at 1 mg/kg, po 10 days later animal received test compound and again saline measured after 0 to 0.5 hrs of dosing; type: functional
Saimiri [19] = test: Antipsychotic activity in squirrel monkey assessed as inhibition of conditioned avoidance response measured as maximum number of shocks possible per 30 mins interval at 1 mg/kg, po 10 days later animal received test compound and again saline measured after 1 to 1.5 hrs of dosing; type: functional
Mus musculus [20] = test: Peripheral anticholinergic activity in po dosed Carworth CF1 mouse assessed as dose required to produce pupil dilation to 1.5 micrometer units in 50% mouse after 2 hrs; type: ADME, organism-based; conditions: in vivo
Saimiri [21] = test: Antipsychotic activity in squirrel monkey assessed as inhibition of conditioned avoidance response measured as maximum number of shocks possible per 30 mins interval at 1 mg/kg, po 10 days later animal received test compound and again saline measured after 4 to 4.5 hrs of dosing; type: functional
Saimiri [22] = test: Antipsychotic activity in squirrel monkey assessed as inhibition of conditioned avoidance response measured as maximum number of shocks possible per 30 mins interval at 1 mg/kg, po 6 days later animal received test compound followed by 0.75 mg/kg, im benztropine 15 mins later measured after 3.5 to 4 hrs of dosing; type: functional
Saimiri [23] = test: Antipsychotic activity in squirrel monkey assessed as inhibition of conditioned avoidance response measured as maximum number of shocks possible per 30 mins interval at 0.50 mg/kg, po after 120 to 150 mins dosing; type: functional; conditions: dose 0.5 mg/kg
Saimiri [24] = test: Antipsychotic activity in squirrel monkey assessed as inhibition of conditioned avoidance response measured as maximum number of shocks possible per 30 mins interval at 1 mg/kg, po 6 days later animal received test compound followed by 0.75 mg/kg, im benztropine 15 mins later measured after 0.5 to 1 hrs of dosing; type: functional
Mus musculus [25] = test: Central anticholinergic activity against physostigmine-induced lethality in Carworth CF1 mouse assessed as animal death at 3.75 mg/kg, po treated 5 hrs before 1.6 mg/kg, sc physostigmine treatment and 2 mg/kg, ip atropine methyl nitrate treated 0.5 hrs before induction (reference value: 0%); type: functional
Saimiri [26] = test: Antipsychotic activity in squirrel monkey assessed as inhibition of conditioned avoidance response measured as maximum number of shocks possible per 30 mins interval at 1 mg/kg, po 10 days later animal received test compound and again saline measured after 0.5 to 1 hrs of dosing; type: functional
Saimiri [27] = test: Antipsychotic activity in squirrel monkey assessed as inhibition of conditioned avoidance response measured as maximum number of shocks possible per 30 mins interval at 0.25 mg/kg, po after 0 to 30 mins dosing; type: functional
Mus musculus [28] = test: Central anticholinergic activity against physostigmine-induced lethality in Carworth CF1 mouse assessed as animal death at 30 mg/kg, po treated 5 hrs before 1.6 mg/kg, sc physostigmine treatment and 2 mg/kg, ip atropine methyl nitrate treated 0.5 hrs before induction (reference value: 0%); type: functional
Saimiri [29] = test: Antipsychotic activity in squirrel monkey assessed as inhibition of conditioned avoidance response measured as maximum number of shocks possible per 30 mins interval at 1 mg/kg, po after 180 to 210 mins dosing; type: functional
Saimiri [30] = test: Antipsychotic activity in squirrel monkey assessed as inhibition of conditioned avoidance response measured as maximum number of shocks possible per 30 mins interval at 1 mg/kg, po 6 days later animal received test compound followed by 0.75 mg/kg, im benztropine 15 mins later measured after 3 to 3.5 hrs of dosing; type: functional
Saimiri [31] = test: Antipsychotic activity in squirrel monkey assessed as inhibition of conditioned avoidance response measured as maximum number of shocks possible per 30 mins interval at 1 mg/kg, po 6 days later animal received test compound followed by 0.75 mg/kg, im benztropine 15 mins later measured after 2.5 to 3 hrs of dosing; type: functional
Mus musculus [32] = test: Peripheral anticholinergic activity in po dosed Carworth CF1 mouse assessed as dose required to produce pupil dilation to 1.5 micrometer units in 50% mouse after 5 hrs; type: ADME, organism-based; conditions: in vivo
Saimiri [33] = test: Antipsychotic activity in squirrel monkey assessed as inhibition of conditioned avoidance response measured as maximum number of shocks possible per 30 mins interval at 1 mg/kg, po 10 days later animal received test compound and again saline measured after 2.5 to 3 hrs of dosing; type: functional
Saimiri [34] = test: Antipsychotic activity in squirrel monkey assessed as inhibition of conditioned avoidance response measured as maximum number of shocks possible per 30 mins interval at 1 mg/kg, po 6 days later animal received test compound followed by 0.75 mg/kg, im benztropine 15 mins later measured after 0 to 0.5 hrs of dosing; type: functional
Saimiri [35] = test: Antipsychotic activity in squirrel monkey assessed as inhibition of conditioned avoidance response measured as maximum number of shocks possible per 30 mins interval at 0.50 mg/kg, po after 150 to 180 mins dosing; type: functional; conditions: dose 0.5 mg/kg
Saimiri [36] = test: Antipsychotic activity in squirrel monkey assessed as inhibition of conditioned avoidance response measured as maximum number of shocks possible per 30 mins interval at 1 mg/kg, po 10 days later animal received test compound and again saline measured after 1.5 to 2 hrs of dosing; type: functional
Mus musculus [37] = test: Central anticholinergic activity against physostigmine-induced lethality in Carworth CF1 mouse assessed as animal death at 7.5 mg/kg, po treated 5 hrs before 1.6 mg/kg, sc physostigmine treatment and 2 mg/kg, ip atropine methyl nitrate treated 0.5 hrs before induction (reference value: 0%); type: functional
Saimiri [38] = test: Antipsychotic activity in squirrel monkey assessed as inhibition of conditioned avoidance response measured as maximum number of shocks possible per 30 mins interval at 1 mg/kg, po 10 days later animal received test compound and again saline measured after 3 to 3.5 hrs of dosing; type: functional
Saimiri [39] = test: Antipsychotic activity in squirrel monkey assessed as inhibition of conditioned avoidance response measured as maximum number of shocks possible per 30 mins interval at 1 mg/kg, po after 240 to 270 mins dosing; type: functional
Saimiri [40] = test: Antipsychotic activity in squirrel monkey assessed as inhibition of conditioned avoidance response measured as maximum number of shocks possible per 30 mins interval at 1 mg/kg, po 6 days later animal received test compound followed by 0.75 mg/kg, im benztropine 15 mins later measured after 2 to 2.5 hrs of dosing; type: functional
Saimiri [41] = test: Antipsychotic activity in squirrel monkey assessed as inhibition of conditioned avoidance response measured as maximum number of shocks possible per 30 mins interval at 1 mg/kg, po 6 days later animal received test compound followed by 0.75 mg/kg, im benztropine 15 mins later measured after 1 to 1.5 hrs of dosing; type: functional
Saimiri [42] = test: Antipsychotic activity in squirrel monkey assessed as inhibition of conditioned avoidance response measured as maximum number of shocks possible per 30 mins interval at 0.25 mg/kg, po after 60 to 90 mins dosing; type: functional
Saimiri [43] = test: Antipsychotic activity in squirrel monkey assessed as inhibition of conditioned avoidance response measured as maximum number of shocks possible per 30 mins interval at 0.50 mg/kg, po after 90 to 120 mins dosing; type: functional; conditions: dose 0.5 mg/kg
Rattus norvegicus = test: Blockade of po dosed apomorphine-induced stereotyped behavior in Sprague-Dawley rat assessed as continuous sniffing, licking, gnawing, or biting; type: functional
[44] = Saimiri, in Primates, po, read-out: ED50

FC(F)(F)Sc1ccc2c(c1)C(=C1CCN(CC3CC3)CC1)c1ccccc1C=C2.O=P(O)(O)O
ED50 (Saimiri [1]): 0.99 mg/kg | ED50 (Saimiri [1]; [44]): 0.51 mg/kg | %max (Saimiri [2]): 82% | %max (Saimiri [3]): 62% | %max (Saimiri [4]): 61.3% | %max (Saimiri [5]): 66.7% | %max (Saimiri [6]): 90% | %max (Saimiri [7]): 0% | %max (Saimiri [8]): 9.6% | %max (Saimiri [9]): 69% | %max (Saimiri [10]): 65%

FC(F)(F)Sc1ccc2c(c1)C(=C1CCN(CC3CC3)CC1)c1ccccc1C=C2 (single isomer, unassigned; atropisomer)
%max (Saimiri [11]): 0.34% | %max (Saimiri [12]): 3.7% | %max (Saimiri [13]): 100% | %max (Saimiri [14]): 69.3% | Activity (Mus musculus [15]): 100% and 85% | %max (Saimiri [16]): 5.3% | %max (Saimiri [17]): 73% | %max (Saimiri [18]): 0% | %max (Saimiri [19]): 42% | ED (Mus musculus [20]): > 120 mg/kg | %max (Saimiri [21]): 64.3% | %max (Saimiri [22]): 3% | %max (Saimiri [23]): 39.4% | %max (Saimiri [24]): 7.6% | Activity (Mus musculus [25]): 100% | %max (Saimiri [26]): 1.7% | %max (Saimiri [27]): 0.34% | Activity (Mus musculus [28]): 85% and 63% | %max (Saimiri [29]): 100% | %max (Saimiri [30]): 4% | %max (Saimiri [31]): 4.3% | ED (Mus musculus [32]): > 120 mg/kg | %max (Saimiri [33]): 42.7% | %max (Saimiri [34]): 2% | %max (Saimiri [35]): 97.4% | %max (Saimiri [36]): 52.7% | Activity (Mus musculus [37]): 95% and 80% | %max (Saimiri [38]): 70.3% | %max (Saimiri [39]): 100% | %max (Saimiri [40]): 8.7% | %max (Saimiri [41]): 5.7% | %max (Saimiri [42]): 0.68% | %max (Saimiri [43]): 17.4%

O=C(CCCN1CCC(O)(c2ccc(Cl)cc2)CC1)c1ccc(F)cc1 [HALOPERIDOL]
ED50 (Saimiri [1]; [44]): 0.29 mg/kg | ED50 (Rattus norvegicus): 0.32 mg/kg
